Results taken from US20110034335A1, “Treatment of Ornamental Plants” (priority 2009, published 2011).

What was measured:
Format in all cases: in vivo
‘Candy Stripe’ phlox = assay: Spray with 1-MCP solutions with or without Silwet L-77, ethylene challenge (Example 2); details: for Bud or Flower Abscission (%): Day 5
Experimental: (§1) Spray applications were made using (unless otherwise noted) AFxRD-038 powder containing 3.8% active ingredient, i.e. 1-MCP, and also containing dextrose, alpha-cyclodextrin, and amino acid salt. Rates listed are for active ingredient e.g. 5 mg active ingredient per liter. Sprayed liquid contained (unless otherwise noted) AFxRD-038 powder added to water. AFxRD-038 powder was obtained from AgroFresh Inc. The water used (unless otherwise noted) was tap water. Applications were done in 500 ml spray bottles at rates typical for growth regulators applications in the ornamental industry i.e., 200 ml per square meter. Spraying was done within 5-15 minutes of mixing the formulation. Plants were allowed to dry for 1-4 hours before being challenged with ethylene (2 ppm for about 16 hours at ambient temperatures).
(§2) Surfactant Silwet™ L-77 (called “surf” below) was sometimes included to evaluate the effect of surfactant on efficacy. Silwet™ L-77 was used in the form of a pure liquid. The amounts shown below as “ml/L” refer to milliliters of pure Silwet™ L-77 per liter of liquid CP composition.
(§3) Kalanchoe (unknown cultivar), ‘Candy Stripe’ phlox and ‘Sonnet’ snapdragon (all in pots of diameter 10 cm (4 inch)) were sprayed with 1-MCP solutions, with or without Silwet™ L-77 surfactant (specific gravity 1.007), and challenged with ethylene.
(§4) For Kanlanchoe, we observed the percent of plants on which one or more flowers died by wilting, whether or not it stayed on the plant. For Phlox and Snapdragon, we observed the percent of plants on which one or more flowers or one or more buds underwent abscission.

‘Sonnet’ snapdragon = assay: as above; details: for Bud or Flower Abscission (%): Day 5
Experimental: as §1, §2, §3, §4

Kalanchoe = assay: as above
Experimental: as §1, §2, §3, §4

Dianthus (mixed) = assay: Racks of flowering plants sprayed, truck 14 hours, ethylene challenge (Example 8); details: 25 mg/L, 200 ml/square meter, scale 0 (poor) to 2 (good)
Experimental: as §1
(§5) Racks of flowers were sprayed with spray liquid containing 25 mg/L at rate of 200 ml/square meter. Racks were then placed into a full enclosed truck (length 7.3 meter) for 14 hours. Plants were then challenged with ethylene and evaluated 3 and 7 days later, using a rating scale from 0 (poor) to 2 (good). […]

Snapdragon (yellow) = assay: as above; details: 25 mg/L, 200 ml/square meter, scale 0 (poor) to 2 (good)
Experimental: as §1, §5

Petunia “Royal Velvet” = assay: as above; details: 25 mg/L, 200 ml/square meter, scale 0 (poor) to 2 (good)
Experimental: as §1, §5

Impatiens (light pink) = assay: as above; details: 25 mg/L, 200 ml/square meter, scale 0 (poor) to 2 (good)
Experimental: as §1, §5

Impatiens (dark pink) = assay: as above; details: 25 mg/L, 200 ml/square meter, scale 0 (poor) to 2 (good)
Experimental: as §1, §5

nursery plants = assay: Nursery plants, reassessment after 4 weeks in greenhouse (Example 10); details: 50 mg/L of 1-MCP; after 4 weeks in a greenhouse
Experimental: (§6) A range of nursery plants that often show quality problems during shipping were chosen including Datura (tropical), Mini-rose, Delphinium (sun perennial), Verbena (sun perennial), Asclepias (sun perennial), Delosperma (groundcover), Myosotis (shade perennial) and Primula (shade perennial).
Spray liquid had 50 mg/L of 1-MCP. Sprayed and unsprayed control plants, all of which were blooming, were packed in boxes according to standard procedures and shipped under commercial conditions. After 5 days plants were unpacked and given a quality rating, from 0 (poor) to 2 (good). Results were as follows:
After the above observations, the plants were placed in a greenhouse for 4 weeks and assessed again.

Campanula = assay: Spray with 1-MCP solutions without surfactant, ethylene challenge (Example 3)
Experimental: as §1
Bud wilting and flower abscission (%) of Campanula (in pots) sprayed with 1-MCP solutions without a surfactant, and challenged with ethylene. We observed the percent of plants on which one or more buds or one or more flowers underwent wilting or abscission or both.

Asclepias = assay: Nursery plants sprayed, boxed and shipped, quality rating (Example 10); details: 50 mg/L of 1-MCP; after 5 days shipping; 0 (poor) to 2 (good)
Experimental: as §6
(§7) Spray liquid had 50 mg/L of 1-MCP. Sprayed and unsprayed control plants, all of which were blooming, were packed in boxes according to standard procedures and shipped under commercial conditions. After 5 days plants were unpacked and given a quality rating, from 0 (poor) to 2 (good).

Mini-rose = assay: as above; details: 50 mg/L of 1-MCP; after 5 days shipping; 0 (poor) to 2 (good)
Experimental: as §6, §7

Datura (tropical) = assay: as above; details: 50 mg/L of 1-MCP; after 5 days shipping; 0 (poor) to 2 (good)
Experimental: as §6, §7

Primula = assay: as above; details: 50 mg/L of 1-MCP; after 5 days shipping; 0 (poor) to 2 (good)
Experimental: as §6, §7

Verbena = assay: as above; details: 50 mg/L of 1-MCP; after 5 days shipping; 0 (poor) to 2 (good)
Experimental: as §6, §7

Delosperma = assay: as above; details: 50 mg/L of 1-MCP; after 5 days shipping; 0 (poor) to 2 (good)
Experimental: as §6, §7

Delphinium = assay: as above; details: 50 mg/L of 1-MCP; after 5 days shipping; 0 (poor) to 2 (good)
Experimental: as §6, §7

Myosotis = assay: as above; details: 50 mg/L of 1-MCP; after 5 days shipping; 0 (poor) to 2 (good)
Experimental: as §6, §7

## CC1=CC1 [1-MCP, 1-methylcyclopropene]
‘Candy Stripe’ phlox; 1-MCP 5 mg/L
  protection against ethylene: sufficient in giving protection against ethylene
‘Candy Stripe’ phlox; 1-MCP 5 mg/L, surf 0 ml/L
  Bud or Flower Abscission (%): 21.4%
‘Candy Stripe’ phlox; 1-MCP 5 mg/L, surf 0.25 ml/L
  Bud or Flower Abscission (%): 26.0%
‘Candy Stripe’ phlox; 1-MCP 10 mg/L, surf 0 ml/L
  Bud or Flower Abscission (%): 17.3%
‘Candy Stripe’ phlox; 1-MCP 10 mg/L, surf 0.25 ml/L
  Bud or Flower Abscission (%): 22.8%
‘Candy Stripe’ phlox; 1-MCP 25 mg/L, surf 0 ml/L
  Bud or Flower Abscission (%): 15.8%
‘Candy Stripe’ phlox; 1-MCP 25 mg/L, surf 0.25 ml/L
  Bud or Flower Abscission (%): 21.2%
‘Candy Stripe’ phlox; 1-MCP 50 mg/L, surf 0 ml/L
  Bud or Flower Abscission (%): 44.1%
‘Candy Stripe’ phlox; 1-MCP 50 mg/L, surf 0.25 ml/L
  Bud or Flower Abscission (%): 40.0%
‘Candy Stripe’ phlox; the highest rates of 1-MCP
  phytotoxicity to the open florets: caused phytotoxicity to the open florets
‘Sonnet’ snapdragon; 1-MCP 5 mg/L
  protection against ethylene: sufficient in giving protection against ethylene
‘Sonnet’ snapdragon; 1-MCP 5 mg/L, surf 0 ml/L
  Bud or Flower Abscission (%): 19.9%
‘Sonnet’ snapdragon; 1-MCP 5 mg/L, surf 0.25 ml/L
  Bud or Flower Abscission (%): 0.0%
‘Sonnet’ snapdragon; 1-MCP 10 mg/L, surf 0 ml/L
  Bud or Flower Abscission (%): 4.4%
‘Sonnet’ snapdragon; 1-MCP 10 mg/L, surf 0.25 ml/L
  Bud or Flower Abscission (%): 3.3%
‘Sonnet’ snapdragon; 1-MCP 25 mg/L, surf 0 ml/L
  Bud or Flower Abscission (%): 7.4%
‘Sonnet’ snapdragon; 1-MCP 25 mg/L, surf 0.25 ml/L
  Bud or Flower Abscission (%): 3.3%
‘Sonnet’ snapdragon; 1-MCP 50 mg/L
  phytotoxicity on flowers: did not result in any phytotoxicity
‘Sonnet’ snapdragon; 1-MCP 50 mg/L, surf 0 ml/L
  Bud or Flower Abscission (%): 6.4%
‘Sonnet’ snapdragon; 1-MCP 50 mg/L, surf 0.25 ml/L
  Bud or Flower Abscission (%): 8.9%
‘Sonnet’ snapdragon; the highest rates of 1-MCP
  phytotoxicity to the open florets: caused phytotoxicity to the open florets
Kalanchoe; 1-MCP 5 mg/L
  protection against ethylene: sufficient in giving protection against ethylene
Kalanchoe; 1-MCP 5 mg/L, surf 0 ml/L, Day 5
  Flower Wilting (%): 7.9%
Kalanchoe; 1-MCP 5 mg/L, surf 0 ml/L, Day 15
  Flower Wilting (%): 11.9%
Kalanchoe; 1-MCP 5 mg/L, surf 0.25 ml/L, Day 5
  Flower Wilting (%): 7.3%
Kalanchoe; 1-MCP 5 mg/L, surf 0.25 ml/L, Day 15
  Flower Wilting (%): 8.7%
Kalanchoe; 1-MCP 10 mg/L, surf 0 ml/L, Day 5
  Flower Wilting (%): 5.6%
Kalanchoe; 1-MCP 10 mg/L, surf 0 ml/L, Day 15
  Flower Wilting (%): 6.7%
Kalanchoe; 1-MCP 10 mg/L, surf 0.25 ml/L, Day 5
  Flower Wilting (%): 5.5%
Kalanchoe; 1-MCP 10 mg/L, surf 0.25 ml/L, Day 15
  Flower Wilting (%): 6.8%
Kalanchoe; 1-MCP 25 mg/L, surf 0 ml/L, Day 5
  Flower Wilting (%): 4.6%
Kalanchoe; 1-MCP 25 mg/L, surf 0 ml/L, Day 15
  Flower Wilting (%): 7.2%
Kalanchoe; 1-MCP 25 mg/L, surf 0.25 ml/L, Day 5
  Flower Wilting (%): 6.2%
Kalanchoe; 1-MCP 25 mg/L, surf 0.25 ml/L, Day 15
  Flower Wilting (%): 7.4%
Kalanchoe; 1-MCP 50 mg/L
  phytotoxicity: did not result in any phytotoxicity
Kalanchoe; 1-MCP 50 mg/L, surf 0 ml/L, Day 5
  Flower Wilting (%): 6.7%
Kalanchoe; 1-MCP 50 mg/L, surf 0 ml/L, Day 15
  Flower Wilting (%): 7.5%
Kalanchoe; 1-MCP 50 mg/L, surf 0.25 ml/L, Day 5
  Flower Wilting (%): 5.7%
Kalanchoe; 1-MCP 50 mg/L, surf 0.25 ml/L, Day 15
  Flower Wilting (%): 6.7%
Dianthus (mixed); Day 3
  rating, Sprayed: 0.58 a
Dianthus (mixed); Day 7
  rating, Sprayed: 0.25 a
Snapdragon (yellow); Day 3
  rating, Sprayed: 0.83 a
Snapdragon (yellow); Day 7
  rating, Sprayed: 0.58 a
Petunia “Royal Velvet”; Day 3
  rating, Sprayed: 1.00 a
Petunia “Royal Velvet”; Day 7
  rating, Sprayed: 0.38 a
Impatiens (light pink); Day 3
  rating, Sprayed: 1.00 a
Impatiens (light pink); Day 7
  rating, Sprayed: 1.00 a
Impatiens (dark pink); Day 3
  rating, Sprayed: 1.00 a
Impatiens (dark pink); Day 7
  rating, Sprayed: 0.83 a
Nursery plants
  assessment of sprayed plants vs control: typically larger, greener, and healthier
Campanula; 1-MCP 5 mg/L, Day 1
  Bud Wilting and/or Flower Abscission (%): 21%
Campanula; 1-MCP 5 mg/L, Day 7
  Bud Wilting and/or Flower Abscission (%): 25%
Campanula; 1-MCP 10 mg/L, Day 1
  Bud Wilting and/or Flower Abscission (%): 45%
Campanula; 1-MCP 10 mg/L, Day 7
  Bud Wilting and/or Flower Abscission (%): 52%
Campanula; 1-MCP 25 mg/L, Day 1
  Bud Wilting and/or Flower Abscission (%): 38%
Campanula; 1-MCP 25 mg/L, Day 7
  Bud Wilting and/or Flower Abscission (%): 59%
Campanula; 1-MCP 50 mg/L, Day 1
  Bud Wilting and/or Flower Abscission (%): 38%
Campanula; 1-MCP 50 mg/L, Day 7
  Bud Wilting and/or Flower Abscission (%): 57%
Asclepias
  Quality Rating, Sprayed: 1.5
Mini-rose
  Quality Rating, Sprayed: 1.8
Datura (tropical)
  Quality Rating, Sprayed: 2.0
Primula
  Quality Rating, Sprayed: 1.0
Verbena
  Quality Rating, Sprayed: 0.5
Delosperma
  Quality Rating, Sprayed: 1.3
Delphinium
  Quality Rating, Sprayed: 1.0
Myosotis
  Quality Rating, Sprayed: 0.5
